In US20250368767A1, “POLYMER FOR INHIBITING SARS-COV-2 AND OTHER PATHOGENS” (FREIE UNIVERSITÄT BERLIN, priority 2022, published 2025):

What was measured:
[1] = test system: wild-type (WT) SARS-CoV-2; type: cell-based; conditions: plaque reduction assay
[2] = zeta potential; type: physicochemical
Protocol: Overall negative charge of the polymers owing to sulfate groups was confirmed by very high negative value of zeta potential (cf. Table 9). To check the morphology of P1 in aqueous solution, cryo-electron microscopy (cryo-EM) was performed. In accordance with the inventors' hypothesis, worm-like defined fibers having a length between approximately 150 nm and 215 nm were observed. Tomography of the sample was measured to calculate accurate length and width of the fibers.

Heparin
IC50 (μg/mL) against SARS-CoV-2 [1]: 1383.0 ± 255.1 µg/mL
IC50 ([1]; read-out: IC50 (μM) against SARS-CoV-2): 92.3 ± 19.4 µM
ξ potential (mV) [2]: −31.2 ± 3.9 mV
